Test results published in paper PMC9698773, “Design, Synthesis, Molecular Modeling, and Anticancer Evaluation of New VEGFR-2 Inhibitors Based on the Indolin-2-One Scaffold” (Pharmaceuticals, 2022).

Assays:
HepG2 cell line = experiment: MTT cytotoxicity assay, HepG2; format: cell-based, human; conditions: for IC50: mean ± SD of three experiments
Protocol: The cytotoxic activities against breast MCF-7 and liver HepG2 cancer cell lines for all the synthesized compounds 3a,b–17a,b were evaluated by MTT-based cytotoxicity assay. Sunitinib was selected as a reference standard in this study, and the results are presented as IC50 in Table 1.
The anticancer activities of the target compounds 3a,b–17a,b were quantitatively assessed using the MTT protocol against the MCF-7 and HepG2 cell lines, as described in the Supplementary Materials. […]
4.2. Biological investigation
4.2.1. In vitro cytotoxic activity assay
Citation: Abdelgawad, M.A.; Cell Line cells were obtained from the American Type Culture Collection. The cells Hayallah A.M.; Bukhari S.N.A.; were cultured using DMEM (Invitrogen/Life Technologies) supplemented with 10% FBS Musa A.; Elmowafy M.; (Hyclone,), 10 ug/ml of insulin (Sigma), and 1% penicillin‐streptomycin. All of the other Abdel‐Rahman, H.M.; chemicals and reagents were from Sigma or Invitrogen. Plate cells (cells density 1.2 – 1.8 Abd El‐Gaber, M.K. Design, × 10,000 cells/well) in a volume of 100μl complete growth medium + 100 μl of the tested Synthesis, Molecular Modeling, and compound per well in a 96‐well plate for 24 hours before the MTT assay. The tested com‐ Anticancer Evaluation of New pounds were dissolved in DMSO just before the test.
VEGFR‐2 Inhibitors Based on the Indolin‐2‐One Scaffold. 4.2.1.1. Cell culture protocol
Pharmaceuticals 2022, 15, x. The culture medium was removed to a centrifuge tube. The cell layer was briefly https://doi.org/10.3390/xxxxx rinsed with 5 mL of 0.25% (w/v) Trypsin and 3 mL of 0.53 mM EDTA solution to remove Academic Editor(s): Mary J. Meegan all traces of serum which contains Trypsin inhibitor. Next, 2.0 to 3.0 ml of Trypsin EDTA Received: 18 October 2022 solution was added to the flask and cells were observed under an inverted microscope Accepted: 9 November 2022 until the cell layer was dispersed (usually within 5 to 15 minutes). Then, 6.0 to 8.0 mL of Published: 14 November 2022 complete growth medium was added and cells aspirated by gently pipetting. The cell suspension was transferred to the centrifuge tube with the medium and cells from step 1, Publisher’s Note: MDPI stays neu‐and centrifuged at approximately 125 xg for 5 to 10 minutes. The supernatant was dis‐ tral with regard to jurisdictional carded and the cell pellet was suspended in fresh growth medium. Appropriate aliquots claims in published maps and institu‐ of the cell suspension were added to new culture vessels and incubated at 37°C for 24 hrs. tional affiliations. After treatment of cells with the serial concentrations of the compound to be tested, incu‐ bation was carried out for 48 h at 37 °C. The plates were examined under an inverted mi‐ croscope and proceeded for the MTT assay […]
Submitted for possible open access 4.2.1.2. […]
HepG‐2) were used in this test. At first, the cell lines were cultured in RPMI‐1640 medium Pharmaceuticals 2022, 15, x. https://doi.org/10.3390/xxxxx. www.mdpi.com/journal/pharmaceuticals […]
Pharmaceuticals 2022, 15, x FOR PEER REVIEW 2 of 22 with 10% fetal bovine serum. Antibiotics (100 units/ml penicillin and100 μg/ml strepto‐ mycin) were added at 37 °C in a 5% CO2 incubator. The cell lines were seeded in a 96‐well plate at a density of 1.0 x 10^4 cells / well at 37 °C for 48 h under 5% CO2. After incubation, the cells were treated with different concentrations of the synthesized compounds and incubated for 24 h. After 24 h of drug treatment, 20 μl of MTT solution (5mg/ml) was added and incubated for 4 h. 100 μl of dimethyl sulfoxide (DMSO) was added into each well to dissolve the formed purple formazan. The colored solution was measured and recorded at an absorbance of 570 nm using a plate reader (EXL 800, USA). The relative cell viability was calculated in percentage as (A570 of treated samples/A570 of untreated sam‐ ple) X 100. The half maximal inhibitory concentration (IC50) values were presented using […]

HepG2 cells = experiment: Apoptosis analysis (Annexin V-FITC/PI, flow cytometry); format: cell-based, human; conditions: HepG2, 1.13 µM, 24 h
Protocol: The HepG2 cells were treated with 17a (1.13 µM for 24 h), and the apoptotic effect was determined using Annexin V-FITC/PI assay. […] In addition, 17a enhanced the necrosis percentage 4-fold more than the control.
The apoptotic ability of compound 17a to the HepG2 cells was assessed using Annexin V-FITC/PI dual staining by flow cytometric analysis, as shown in the Supplementary Materials. […]
4.2.3. Cell cycle analysis […]
4.2.4. Apoptosis analysis
Flow cytometry cell apoptosis analysis was used to investigate the apoptotic effect of the synthesized compounds. HepG2 cells were treated with compound 17a (1.13 μM) for 24 h, collected by trypsin, centrifuged, washed two successive times with PBS, suspended in 500 μL binding buffer, and double stained with 5 μL Annexin V‐FITC and 5 μL PI in the dark at room temperature for 15 min. The stained cells were measured using a BD FACSCalibur™ Flow Cytometer and analyzed using Flowing software. […]

O=C1Nc2ccccc2C1=Nc1ccc(C(=O)NNC(=S)Nc2ccccc2)cc1 [Compound 17a, 2-(4-((2-Oxoindolin-3-ylidene)amino)benzoyl)-N-phenylhydrazinecarbothioamide]
IC50 (HepG2 cell line; Homo sapiens, HepG2, MTT assay): 1130 ± 60 nM | IC50 (HepG2 cell line; MTT assay): 1130 ± 60 nM | fold more potent than sunitinib, HepG2 (HepG2 cell line; ratio of IC50 to sunitinib): two-fold | Apoptosis Early (HepG2 cells): 33.86% | Apoptosis Late (HepG2 cells): 7.99% | Apoptosis Total (HepG2 cells): 46.38% | Necrosis (HepG2 cells): 4.53% | increase of necrosis percentage versus control (HepG2 cells): 4 fold
